Structures can show the parent of a compound that is named as a salt.

The assay deals with T1, HCV polymerase (Hepatitis C virus genotype 1b, UniProt P26663).
T1 construct: a region encoding NS5B (J Virol 1991 March, 65(3), 1105-13, 544 amino acids after deletion of 47 amino acids on the C-terminal); 6xHis (C); made in house; host or cells: Escherichia coli
T1 sequence (P26663 2420-2963): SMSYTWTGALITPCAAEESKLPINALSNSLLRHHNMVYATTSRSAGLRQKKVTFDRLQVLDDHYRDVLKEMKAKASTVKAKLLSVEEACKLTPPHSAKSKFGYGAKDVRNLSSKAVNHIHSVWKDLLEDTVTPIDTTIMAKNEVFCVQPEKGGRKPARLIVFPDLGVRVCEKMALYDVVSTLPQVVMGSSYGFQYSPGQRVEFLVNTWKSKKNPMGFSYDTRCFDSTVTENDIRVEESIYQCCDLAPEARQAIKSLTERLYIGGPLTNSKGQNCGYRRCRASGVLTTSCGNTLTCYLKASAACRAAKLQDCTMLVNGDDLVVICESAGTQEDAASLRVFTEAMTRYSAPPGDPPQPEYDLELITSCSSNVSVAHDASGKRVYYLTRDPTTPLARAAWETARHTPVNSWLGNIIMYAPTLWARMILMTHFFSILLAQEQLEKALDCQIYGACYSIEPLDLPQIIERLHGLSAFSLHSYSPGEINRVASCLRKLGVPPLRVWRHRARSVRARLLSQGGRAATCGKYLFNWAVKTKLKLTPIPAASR
The assay is described as follows: biochemical. Details: species or system HCV BK strain. A digest of the protocol: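 His-tagged NS5B (BK strain, 47-aa C-terminal deletion, E. coli-expressed) at 0.5 μg/ml copied 5 μg/ml run-off RNA bearing the HCV 3′ UTR with 2 μM UTP plus [3H]UTP, 50 μM ATP/GTP, in pH 7.5 Tris with 5 mM MgCl2, 25 °C, 90 min. TCA-precipitated RNA was counted and IC50 calculated.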
As usually defined, the IC50 is the concentration needed to halve the response being measured. High values mean a need for much substance, low ones inhibition by little substance. On to `CCN(CC)CC(O)CN1CCn2c(c(C3CCCCC3)c3ccc(C(=O)O)cc32)-c2ccc(Cl)cc21` (stereo not shown) [Example 1-503, 3-chloro-13-cyclohexyl-5-(3-diethylamino-2-hydroxypropyl)-6,7-dihydro-5H-benzo[5,6][1,4]diazepino[7,1-a]indole-10-carboxylic acid dihydrochloride], for which the IC50 was less than 100 nM.

Take `CC(=O)N1CCCN(CCN2CCn3c(c(C4CCCCC4)c4ccc(C(=O)O)cc43)-c3ccc(C)cc32)CC1` [Example 1-504, 5-[2-(4-acetyl-1,4-diazepan-1-yl)ethyl]-13-cyclohexyl-3-methyl-6,7-dihydro-5H-benzo[5,6][1,4]diazepino[7,1-a]indole-10-carboxylic acid dihydrochloride]: the concentration for half-maximal inhibition (IC50) was less than 100 nM.

For `Cc1ccc2c(c1)NCCn1c-2c(C2CCCCC2)c2ccc(S(N)(=O)=O)cc21` [Example 1-506, 13-cyclohexyl-3-methyl-6,7-dihydro-5H-benzo[5,6][1,4]diazepino[7,1-a]indole-10-sulfonamide], the half-inhibitory concentration (IC50) was in the range of 100 to 1000 nM.

`Cc1ccc2c(c1)N(CCN1CCCCC1)CCn1c-2c(C2CCCCC2)c2ccc(S(N)(=O)=O)cc21` [Example 1-507, 13-cyclohexyl-3-methyl-5-[2-(piperidin-1-yl)ethyl]-6,7-dihydro-5H-benzo[5,6][1,4]diazepino[7,1-a]indole-10-sulfonamide dihydrochloride] yielded an IC50 of 100 to 1000 nM.

Regarding `COC[C@@H]1CCCN(CCN2CCn3c(c(C4CCCCC4)c4ccc(C(=O)O)cc43)-c3ccc(OC)cc32)C1` [Example 1-508, 13-cyclohexyl-3-methoxy-5-[2-((R)-3-methoxymethylpiperidin-1-yl)ethyl]-6,7-dihydro-5H-benzo[5,6][1,4]diazepino[7,1-a]indole-10-carboxylic acid dihydrochloride], the IC50 is less than 100 nM.

`COC[C@@H]1CCCN(CCN2CCn3c(c(C4CCCCC4)c4ccc(C(=O)O)cc43)-c3ccc(F)cc32)C1` [Example 1-509, 13-cyclohexyl-3-fluoro-5-[2-((R)-3-methoxymethylpiperidin-1-yl)ethyl]-6,7-dihydro-5H-benzo[5,6][1,4]diazepino[7,1-a]indole-10-carboxylic acid dihydrochloride] returned a 50% inhibitory concentration (IC50) of less than 100 nM.

Regarding `COc1ccc2c(c1)N(CCN1CCCOCC1)CCn1c-2c(C2CCCCC2)c2ccc(C(=O)O)cc21` [Example 1-510, 13-cyclohexyl-3-methoxy-5-[2-(1,4-oxazepan-4-yl)ethyl]-6,7-dihydro-5H-benzo[5,6][1,4]diazepino[7,1-a]indole-10-carboxylic acid dihydrochloride], the IC50 was less than 100 nM.

`CCN(CCCN1CCn2c(c(C3CCCCC3)c3ccc(C(=O)O)cc32)-c2ccc(C)cc21)CCOC` [Example 1-511, 13-cyclohexyl-5-{3-[N-ethyl-N-(2-methoxyethyl)amino]propyl}-3-methyl-6,7-dihydro-5H-benzo[5,6][1,4]diazepino[7,1-a]indole-10-carboxylic acid dihydrochloride] registered an IC50 of less than 100 nM.

Consider `CCN(CCO)CCCN1CCn2c(c(C3CCCCC3)c3ccc(C(=O)O)cc32)-c2ccc(C)cc21` [Example 1-512, 13-cyclohexyl-5-{3-[N-ethyl-N-(2-hydroxyethyl)amino]propyl}-3-methyl-6,7-dihydro-5H-benzo[5,6][1,4]diazepino[7,1-a]indole-10-carboxylic acid dihydrochloride], for which the IC50 was less than 100 nM.

In the case of `CCc1ccc2c(c1)N(CCCN(CC)CCCOC)CCn1c-2c(C2CCCCC2)c2ccc(C(=O)O)cc21` [Example 1-513, 13-cyclohexyl-5-{3-[N-ethyl-N-(3-methoxypropyl)amino]propyl}-3-ethyl-6,7-dihydro-5H-benzo[5,6][1,4]diazepino[7,1-a]indole-10-carboxylic acid dihydrochloride], the half-maximal inhibitory concentration (IC50) was less than 100 nM.

As to `CCOCC[C@@H]1CCCN(CCN2CCn3c(c(C4CCCCC4)c4ccc(C(=O)O)cc43)-c3ccc(C)cc32)C1` [Example 1-514, 13-cyclohexyl-5-{2-[(S)-3-(2-ethoxyethyl)piperidin-1-yl]ethyl}-3-methyl-6,7-dihydro-5H-benzo[5,6][1,4]diazepino[7,1-a]indole-10-carboxylic acid dihydrochloride], the IC50 was less than 100 nM.

The molecule `CCOCC[C@@H]1CCCN(CCN2CCn3c(c(C4CCCCC4)c4ccc(C(=O)O)cc43)-c3ccc(OCC)cc32)C1` [Example 1-515, 13-cyclohexyl-3-ethoxy-5-{2-[(S)-3-(2-ethoxyethyl)piperidin-1-yl]ethyl}-6,7-dihydro-5H-benzo[5,6][1,4]diazepino[7,1-a]indole-10-carboxylic acid dihydrochloride] registered a half-inhibitory concentration (IC50) of less than 100 nM.

`Cc1ccc2c(c1)N(C)CCn1c-2c(C2CCCCC2)c2ccc(S(N)(=O)=O)cc21` [Example 1-517, 13-cyclohexyl-3,5-dimethyl-6,7-dihydro-5H-benzo[5,6][1,4]diazepino[7,1-a]indole-10-sulfonamide] displayed an IC50 of 100 to 1000 nM.

Regarding `COC(=O)N1CCCN(CCN2CCn3c(c(C4CCCCC4)c4ccc(C(=O)O)cc43)-c3ccc(C)cc32)CC1` [Example 1-518, 13-cyclohexyl-5-[2-(4-methoxycarbonyl-1,4-diazepan-1-yl)ethyl]-3-methyl-6,7-dihydro-5H-benzo[5,6][1,4]diazepino[7,1-a]indole-10-carboxylic acid dihydrochloride], the IC50 is less than 100 nM.

In the case of `O=C1CCN(CCN2CCn3c(c(C4CCCCC4)c4ccc(C(=O)O)cc43)-c3ccccc32)CCN1` [Example 1-519, 13-cyclohexyl-5-[2-(5-oxo-1,4-diazepan-1-yl)ethyl]-6,7-dihydro-5H-benzo[5,6][1,4]diazepino[7,1-a]indole-10-carboxylic acid dihydrochloride], the 50% inhibitory concentration (IC50) is less than 100 nM.

Take `CC(=O)NS(=O)(=O)c1ccc2c(C3CCCCC3)c3n(c2c1)CCN(CCN1CCCCC1)c1cc(C)ccc1-3` [Example 1-520, N-acetyl-13-cyclohexyl-3-methyl-5-[2-(piperidin-1-yl)ethyl]-6,7-dihydro-5H-benzo[5,6][1,4]diazepino[7,1-a]indole-10-sulfonamide dihydrochloride]: the IC50 was less than 100 nM.

As for `Cc1ccc2c(c1)N(CCCN(C(C)C)C(C)C)CCn1c-2c(C2CCCCC2)c2ccc(C(=O)O)cc21` [Example 1-521, 13-cyclohexyl-5-(3-diisopropylaminopropyl)-3-methyl-6,7-dihydro-5H-benzo[5,6][1,4]diazepino[7,1-a]indole-10-carboxylic acid dihydrochloride], the 50% inhibitory concentration (IC50) is less than 100 nM.

Molecule `O=C(O)c1ccc2c(C3CCCCC3)c3n(c2c1)CCN(CCN1CCCCC1)c1cc(OC(F)(F)F)ccc1-3` [Example 1-522, 13-cyclohexyl-5-[2-(piperidin-1-yl)ethyl]-3-trifluoromethoxy-6,7-dihydro-5H-benzo[5,6][1,4]diazepino[7,1-a]indole-10-carboxylic acid dihydrochloride] had an IC50 of less than 100 nM.

Take `COCC[C@@H]1CCCN(CCN2CCn3c(c(C4CCCCC4)c4ccc(C(=O)O)cc43)-c3ccc(OC(F)(F)F)cc32)C1` [Example 1-523, 13-cyclohexyl-5-{2-[(S)-3-(2-methoxyethyl)piperidin-1-yl]ethyl}-3-trifluoromethoxy-6,7-dihydro-5H-benzo[5,6][1,4]diazepino[7,1-a]indole-10-carboxylic acid dihydrochloride]: the IC50 was less than 100 nM.

As to `CCN(CCCN1CCn2c(c(C3CCCCC3)c3ccc(C(=O)O)cc32)-c2ccc(C)cc21)C(C)C` [Example 1-524, 13-cyclohexyl-5-[3-(N-ethyl-N-isopropylamino)propyl]-3-methyl-6,7-dihydro-5H-benzo[5,6][1,4]diazepino[7,1-a]indole-10-carboxylic acid dihydrochloride], the half-inhibitory concentration (IC50) was less than 100 nM.

`COC1CCCN(CCN2CCn3c(c(C4CCCCC4)c4ccc(C(=O)O)cc43)-c3ccc(C)cc32)CC1` (stereo not shown) [Example 1-525, 13-cyclohexyl-5-[2-(4-methoxyazepan-1-yl)ethyl]-3-methyl-6,7-dihydro-5H-benzo[5,6][1,4]diazepino[7,1-a]indole-10-carboxylic acid dihydrochloride] yielded a half-maximal inhibitory concentration (IC50) of less than 100 nM.

With `Cc1ccc2c(c1)N(CCN1CCC(=O)N(C)CC1)CCn1c-2c(C2CCCCC2)c2ccc(C(=O)O)cc21` [Example 1-526, 13-cyclohexyl-3-methyl-5-[2-(4-methyl-5-oxo-1,4-diazepan-1-yl)ethyl]-6,7-dihydro-5H-benzo[5,6][1,4]diazepino[7,1-a]indole-10-carboxylic acid dihydrochloride], the IC50 was less than 100 nM.

The molecule `Cc1ccc2c(c1)N(CCN1CCC[C@@H](CC(=O)N(C)C)C1)CCn1c-2c(C2CCCCC2)c2ccc(C(=O)O)cc21` [Example 1-527, 13-cyclohexyl-5-{2-[(S)-3-(dimethylcarbamoylmethyl)piperidin-1-yl]ethyl}-3-methyl-6,7-dihydro-5H-benzo[5,6][1,4]diazepino[7,1-a]indole-10-carboxylic acid dihydrochloride] registered a half-maximal inhibitory concentration (IC50) of less than 100 nM.

Regarding `COCCOC[C@@H]1CCCN(CCN2CCn3c(c(C4CCCCC4)c4ccc(C(=O)O)cc43)-c3ccc(C)cc32)C1` [Example 1-528, 13-cyclohexyl-5-{2-[(R)-3-(2-methoxyethoxymethyl)piperidin-1-yl]ethyl}-3-methyl-6,7-dihydro-5H-benzo[5,6][1,4]diazepino[7,1-a]indole-10-carboxylic acid dihydrochloride], the concentration for half-maximal inhibition (IC50) is less than 100 nM.

With `Cc1ccc2c(c1)N(CCN1CCC[C@@H](CC(C)(C)O)C1)CCn1c-2c(C2CCCCC2)c2ccc(C(=O)O)cc21` [Example 1-529, 13-cyclohexyl-5-{2-[(S)-3-(2-hydroxy-2-methylpropyl)piperidin-1-yl]ethyl}-3-methyl-6,7-dihydro-5H-benzo[5,6][1,4]diazepino[7,1-a]indole-10-carboxylic acid dihydrochloride], the IC50 is less than 100 nM.

The record behind these values is patent US20070049593A1 (priority 2004, published 2007).
